pKi: −log10 of the molar value. Where two headings read alike, the source gives them in different places.
Key:
[1] = system: E. coli AS19 [pLBII-VIM2]; assay: microbe, parasite or virus in culture; assay type: cell-based, Escherichia coli; conditions: for zone of inhibition at 40 µg/disc: Escherichia coli, read-out: Inhibition zone diameter AS 19, difference between measured diameter and diameter without compound
Method: (§1) A] A disk-diffusion test in which the inhibitor was added (40-320 μg) to a disk containing a defined amount of a β-lactam antibiotic (such as 30 μg cefoxitin) was used to evaluate the antimicrobial activity (corresponding to the diameter of the growth inhibition zone, expressed in mm) of the combination when compared of that of the antibiotic alone.
(§2) These tests were performed on isogenic laboratory strains (such as Escherichia coli DH5a or XL-1) producing a defined MBL after its transformation with a pLB-II plasmid derivative (such as pLBII-VIM-2) [Borgianni L., Vandenameele J., Matagne A., Bini L., Bonomo R. A., Frere J. M., Rossolini G. M., Docquier J. D. (2010) Antimicrob. Agents Chemother. 54, 3197-3204] harbouring a cloned gene encoding the functional metallo-β-lactamase. Alternatively, hyperpermeable strains (such as Escherichia coli AS19) were used instead of Escherichia coli DH5α or XL-1.

[2] = target: VIM-2 (Escherichia coli, UniProt Q5U7L7); assay: Enzymatic assay for determination of inhibition constants, reporter substrate method, purified VIM-2; assay type: biochemical;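 also: purified VIM-2 hydrolysing a reporter substrate (imipenem, meropenem, cefotaxime or nitrocefin), reaction rate read as absorbance change, HEPES 50 mM at pH 7.5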
Method: (§3) The reaction rate was measured as the variation of absorbance observed upon substrate hydrolysis in a UV-Vis spectrophotometer or microplate reader at a wavelength of 300 nm (imipenem, meropenem), 260 nm (cefotaxime) or 482 nm (nitrocefin) in 50 mM HEPES buffer (pH 7.5) and in the presence of a purified MBL enzyme (such as VIM-1, VIM-2, VIM-4, NDM-1 and IMP-1, at a final concentration ranging 1-70 nM).
(§4) The inhibition constants (Ki) were determined on the basis of a model of competitive inhibition by analyzing the dependence of the ratio v0/vi (v0, hydrolysis velocity in the absence of inhibitor; vi, hydrolysis velocity in the presence of inhibitor) as a function of [I] as already described [Docquier J. D., Lamotte-Brasseur J., Galleni M., Amicosante G., Frère J. M., Rossolini G. M. (2003) J. Antimicrob. […] The slope of the plot of v0/vi vs [I], which corresponds to Km^S/(Km^S+[S])Ki (where Km^S is the Km value of the reporter substrate and [S] its concentration in the reaction mixture) and allowed the calculation of the Ki value. Alternatively, a Dixon plot analysis was carried out, by measuring the initial hydrolysis rates in the presence of variable concentrations of inhibitor and substrate.

[3] = target: VIM-4 (Pseudomonas aeruginosa, UniProt Q8KRJ3); assay: Enzymatic assay for determination of inhibition constants, reporter substrate method, purified VIM-4; assay type: biochemical; conditions: at 100 μM (maximal tested concentration);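 also: purified VIM-4 (1-70 nM) in 50 mM HEPES pH 7.5, reporter substrate hydrolysis rate tracked by absorbance change (nitrocefin 482 nm, imipenem or meropenem 300 nm, cefotaxime 260 nm)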
[4] = target: VIM-1 (Pseudomonas aeruginosa, UniProt A0A0F7KYQ8); assay: Enzymatic assay for determination of inhibition constants, reporter substrate method, purified VIM-1; assay type: biochemical; conditions: isolated MBL, competitive inhibition model;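 also: initial hydrolysis rates of a reporter β-lactam (imipenem, meropenem, cefotaxime or nitrocefin) followed by absorbance change, purified enzyme at 1–70 nM in 50 mM HEPES pH 7.5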
Method: as §3, §4

[5] = target: IMP-1 (Serratia marcescens, UniProt P52699); assay: Enzymatic assay for determination of inhibition constants, reporter substrate method, purified IMP-1; assay type: biochemical; conditions: for pKi: isolated MBL, competitive inhibition model;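 as to all read-outs here: purified IMP-1 (1-70 nM) hydrolysing a reporter substrate, initial rates followed as absorbance change at 260, 300 or 482 nm in 50 mM HEPES pH 7.5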
[6] = target: NDM-1 (Klebsiella pneumoniae, UniProt C7C422); assay: Enzymatic assay for determination of inhibition constants, reporter substrate method, purified NDM-1; assay type: biochemical; conditions: isolated MBL, competitive inhibition model;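 also: purified enzyme activity followed as absorbance change from reporter substrate hydrolysis on a UV-Vis spectrophotometer or plate reader, 50 mM HEPES pH 7.5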
Method: as §3, §4

[7] = system: K. pneumoniae S1-002 (blaVIM-4+); assay: Broth microdilution MIC of meropenem in absence and presence of MBL inhibitor, S1-002; assay type: cell-based; conditions: MBL inhibitor fixed at 32 μg/ml, Mueller-Hinton broth, duplicate
Method: (§5) This method was performed in agreement with the CLSI recommendations (document M07-A10, 2015, “Methods for Dilution Antimicrobial Susceptibility Tests for Bacteria That Grow Aerobically”).
(§6) MIC values of meropenem (MEM) were determined in duplicate in Mueller-Hinton broth as recommended by CLSI (document M07-A10, 2015), in absence and presence of a fixed concentration of MBL inhibitor (32 μg/ml).

[8] = system: K. pneumoniae SI-001 (blaVIM-1+); assay: Broth microdilution MIC of meropenem in absence and presence of MBL inhibitor, SI-001; assay type: cell-based; conditions: MBL inhibitor fixed at 32 μg/ml, Mueller-Hinton broth, duplicate
Method: as §5, §6

[9] = Cell membrane integrity assay, LDH release, compound cytotoxicity; assay type: cell-based; conditions: human, HeLa cells, 0.001 to 1.2 mM, read-out: IC50, compound concentration inducing 50% cytotoxicity (LDH release)
Method: Selected compounds were tested for their ability to induce the lysis of eukaryotic cells by measuring the release of lactate dehydrogenase enzyme (LDH) from HeLa cells, after incubating such cells for 24 hours (37° C., 5% CO2) in Dulbecco's modified Eagle medium supplemented with 10% fetal bovine serum, 4.5 mg/ml glucose and 2 mM L-glutamine in the absence and presence of the compound at concentrations ranging from 0.001 to 1.2 mM. LDH activity was determined using commercial kits (such as the CytoTox 96® Non-Radioactive Cytotoxicity Assay, Promega, Madison, Wis., U.S.A.) in the samples, containing HeLa cells incubated with the various concentrations of the assayed compound or with the solvent or buffer used to resuspend such compounds (vehicle control).
Further controls included samples containing the medium only (medium control) or in which cell lysis was induced by the addition of 9% Triton X-100 (maximum LDH release control). The percentage of cytotoxicity was computed as 100×(Sample LDH release)/(maximum LDH release). The variation of the percentage of cytotoxicity is usually dependent on the compound concentration and allowed to compute an IC50 value, corresponding to the compound concentration inducing 50% cytoxicity.

[10] = system: E. coli LZ2310[pLBII-VIM2] (E. coli K12 ΔnorE ΔmdfA N43 acrA1); assay type: cell-based, Escherichia coli; conditions: EDTA 220 μg added to cefoxitin disk (30 μg); cefoxitin alone 14 mm
Method: as §1, §2

[11] = as listed in Table 2, read-out: Ki on VIM-2
[12] = isolated MBL, competitive inhibition model, read-out: Ki VIM-2

Chain of IMP-1 (P52699 19-246, looked up, species assumed): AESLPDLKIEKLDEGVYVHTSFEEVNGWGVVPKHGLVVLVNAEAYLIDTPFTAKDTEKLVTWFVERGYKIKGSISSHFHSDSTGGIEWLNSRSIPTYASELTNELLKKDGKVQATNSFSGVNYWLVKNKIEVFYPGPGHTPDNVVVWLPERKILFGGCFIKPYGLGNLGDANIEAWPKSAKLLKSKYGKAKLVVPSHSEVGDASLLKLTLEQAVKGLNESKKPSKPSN
Chain of NDM-1 (C7C422 29-270, looked up, species assumed): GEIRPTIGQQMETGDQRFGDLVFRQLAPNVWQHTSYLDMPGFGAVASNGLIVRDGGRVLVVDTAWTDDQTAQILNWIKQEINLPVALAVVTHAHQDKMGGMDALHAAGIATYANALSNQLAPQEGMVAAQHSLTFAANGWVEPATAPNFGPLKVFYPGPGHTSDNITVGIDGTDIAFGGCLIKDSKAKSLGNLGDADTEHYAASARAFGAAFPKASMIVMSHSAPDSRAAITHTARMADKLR

Compound | zone of inhibition at 40 µg/disc [1] [mm] | pKi [2, 11] | pKi [2, 12] | % inhibition VIM-4 [3] [% at 100 μM] | pKi [4] | pKi [5] | pKi [6] | melting point [°C] | MIC potentiation of meropenem (x.log2 dilutions), K. pneumoniae S1-002 (blaVIM-4+) [7] [log2 dilutions] | MIC potentiation of meropenem (x.log2 dilutions), K. pneumoniae SI-001 (blaVIM-1+) [8] [log2 dilutions] | IC50 at 24 h [9] [µM] | Inhibition zone diameter AS 19 ([1]; EDTA 220 μg added to cefoxitin disk (30 μg), cefoxitin alone 16 mm) [mm] | Inhibition zone diameter LZ 2310 [10] [mm] | % inhibition IMP-1 ([5]; at 200 μM (maximal tested concentration)) [% at 200 μM]
COc1ccc(O)c(-c2n[nH]c(=S)n2CCc2ccccc2C(=O)O)c1 [Compound 4, 2-{2-[3-(2-hydroxy-5-methoxyphenyl)-5-sulfanylidene-4,5-dihydro-1H-1,2,4-triazol-4-yl]ethyl}benzoic acid] | 4 | > 6.00 | > 6.00 | 80 | < 4.00 | < 4.00 | < 4.00 | 88 to 89 |  |  |  |  |  | 
S=c1[nH]nc(-c2ccccc2)n1CCSCc1ccccc1 [Compound 33, 4-[2-(benzylsulfanyl)ethyl]-3-phenyl-4,5-dihydro-1H-1,2,4-triazole-5-thione] |  |  | 5.00 to 6.00 |  | > 6.00 | < 4.00 | 5.00 to 6.00 | 108 to 109 | 2 | 3 |  |  |  | 
Cc1ccccc1-c1n[nH]c(=S)n1CCc1ccccc1C(=O)O [Compound 14, 2-{2-[3-(2-methylphenyl)-5-sulfanylidene-4,5-dihydro-1H-1,2,4-triazol-4-yl]ethyl}benzoic acid] | 3 | > 6.00 | > 6.00 | 80 | 5.00 to 6.00 | < 4.00 | < 4.00 | 180 to 181 |  |  | > 1200 |  |  | 
O=C(O)CN(CCN(CC(=O)O)CC(=O)O)CC(=O)O [EDTA, reference compound] |  |  |  |  |  |  |  |  |  |  |  | 26 | 30 | 
O=C(O)c1ccccc1CCn1c(-c2cccs2)n[nH]c1=S [Compound 13, 2-{2-[3-(thiophen-2-yl)-5-sulfanylidene-4,5-dihydro-1H-1,2,4-triazol-4-yl]ethyl}benzoic acid] | 4 | 5.00 to 6.00 | 5.00 to 6.00 |  | < 4.00 | < 4.00 | < 4.00 | 195 to 196 |  |  | > 1200 |  |  | 
O=C(O)CCCCn1c(-c2ccccc2)n[nH]c1=S [Compound 15, 5-(3-phenyl-5-sulfanylidene-4,5-dihydro-1H-1,2,4-triazol-4-yl)pentanoic acid] | 3 | 5.00 to 6.00 | 5.00 to 6.00 | 85 | < 4.00 |  | < 4.00 | 176 to 177 |  |  |  |  |  | 60
O=C(O)c1ccccc1CCn1c(-c2ccco2)n[nH]c1=S [Compound 12, 2-{2-[3-(furan-2-yl)-5-sulfanylidene-4,5-dihydro-1H-1,2,4-triazol-4-yl]ethyl}benzoic acid] | 3 | > 6.00 | > 6.00 | 70 |  | < 4.00 | < 4.00 | 210 to 211 |  |  | > 1200 |  |  | 

From patent publication US20220000841A1, “INHIBITORS OF METALLO-BETA-LACTAMASES” (CENTRE NATIONAL DE LA RECHERCHE SCIENTIFIQUE, priority 2018, published 2022)
